# Results from PubChem BioAssay AID1259426 (Fisher Drug Discovery Resource Center, 2018).
# Where “and” joins values, the source holds several entries; their conditions need not be identical. Identical values can stand only once. Calls of active or inactive are those of the source.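 Rule for the calls: active = EC50 under a set limit in control cells lacking the mosquito receptor, marking a fluorescence artifact; inactive = the rest.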
# Target: HEK293 Galpha15/GCaMP6s without NPYLR7, calcium fluorescence
# Assay: calcium response in NPYLR7-null HEK293 cells, dose response, counter-screen for mosquito NPYLR7 agonist project, cell-based, HEK293 lacking NPYLR7 (AID 1259426);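 note: potency for a rise in fluorescence over baseline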
row,SMILES,EC50
1,COc1ccc(CCN2COc3ccc4c(c3C2)O/C(=C\c2cccnc2)C4=O)cc1,> 20 µM (inactive)
2,CCN1CCN(c2ccc(C(=O)C=Cc3ccc(O)c(OC)c3)cc2F)CC1,11.2 µM
3,O=C1Nc2ccccc2C1C=NN1CCOCC1 (stereo unspecified),> 20 µM (inactive)
4,CC(C)NCC(O)c1ccc(O)c(O)c1 (stereo unspecified),< 0.039 µM
5,CCOc1ccc(/C=C2N=C(/C=C/c3ccccc3)OC/2=O)cc1,> 20 µM (inactive)
6,COc1ccc(/C=C2\Oc3c(ccc4c3CN(Cc3ccncc3)CO4)C2=O)cc1,8.8 µM
7,Cc1ccc(Cl)c(Oc2cc(N3CCN(C(=O)c4ccc(Cl)c(Cl)c4)CC3)ncn2)c1,> 20 µM (inactive)
8,CCCCCN=C(N)NN=Cc1c[nH]c2ccc(OC)cc12,> 20 µM (inactive)
9,O=C(O)CCN1C(=O)/C(=C/c2ccc(O)cc2)SC1=S,2.69 µM
10,Cc1cc2c(c(-c3ccc4c(cnn4C)c3)c1)OC(CN)C2 (stereo unspecified),> 20 µM (inactive)
11,COc1cc(NC(=O)N2CC(=O)N3CCc4c(F)cccc4C3C2)cc(OC)c1OC (stereo unspecified),> 20 µM (inactive)
12,COc1ccc(CCN2COc3ccc4c(c3C2)O/C(=C\c2ccncc2)C4=O)cc1OC,14.8 µM
13,O=[N+]([O-])c1ccc(Cl)c2nonc12,4.83 µM
14,COc1cccc(/C=C2\Oc3c(ccc4c3CN(Cc3ccncc3)CO4)C2=O)c1,10.5 µM
15,CC(=O)Oc1c(/C=C(\C#N)C(N)=O)[nH]c2ccccc12,6.22 µM
16,CC(C)(C)c1cnc(CSc2cnc(NC(=O)C3CCNCC3)s2)o1,> 20 µM (inactive)
17,Cc1[nH]c(/C=C2\C(=O)Nc3ccccc32)c(C)c1CCC(=O)O,< 0.039 µM
18,O=c1oc2c(CN3CC4CC(C3)c3cccc(=O)n3C4)c(O)ccc2cc1-c1nc2ccccc2s1 (stereo unspecified),13.4 µM
19,CCn1c(O)c(C=Nc2c(C#N)c(C)c(C)n2C2CCCCC2)c(=O)n(CC)c1=S,1.31 µM
20,O=c1nc2sc3[nH]c(=O)sc3cc-2s1,< 0.039 µM
21,CC(C)C(=O)Nc1sc2c(c1-c1nc3ccccc3s1)CCN(C)C2,> 20 µM (inactive)
22,COc1ccc(N2CCN(c3cc(C(F)(F)F)nc(SCc4cccc(C(=O)NCc5ccccn5)c4)n3)CC2)cc1,> 20 µM (inactive)
23,C=CCN1C(=O)C(Cc2ccc(OC)cc2)S/C1=N/N=C\c1cccs1 (stereo unspecified),> 20 µM (inactive)
24,CNC(=O)NC(=O)CCN1CC(c2ccccc2Cl)c2c([nH]c3ccccc23)C1C (stereo unspecified),> 20 µM (inactive)
25,COC(=O)C1CCN(S(=O)(=O)c2c(F)cc(F)cc2Br)CC1,> 20 µM (inactive)
26,CCN(CC)CCCC(C)Nc1c2ccc(Cl)cc2nc2ccc(OC)cc12 (stereo unspecified),4.89 µM and 1.41 µM

row,SMILES,EC50
1,COc1ccc(-c2cnn(CCC(N)=O)c2)c(C)c1,> 20 µM (inactive)
2,CCCCCn1c(=O)c2c(nc3n2CCN3c2cc(C)cc(C)c2)n(C)c1=O,> 20 µM (inactive)
3,O=C1c2ccccc2-c2nn(CN3CCN(c4ccccc4)CC3)c3cccc1c23,> 20 µM (inactive)
4,NC(=S)N/N=c1\oc2cc(O)ccc2cc1-c1nc2ccccc2[nH]1,0.155 µM
5,CCOc1ccc2nc3cc(N)ccc3c(N)c2c1,4.44 µM
6,CCN1CCN(C(=O)c2ccc(Cn3ccsc3=NC(=O)c3ccc(OC)c(OC)c3)o2)CC1,> 20 µM (inactive)
7,COc1ccc(N2C(=O)/C(=C\c3ccc[nH]3)N(C)C2=S)c([N+](=O)[O-])c1,> 20 µM (inactive)
8,COc1ccc(CC2c3cc(OC)c(OC)cc3CC[N+]2(C)CCC(=O)OCCCCCOC(=O)CC[N+]2(C)CCc3cc(OC)c(OC)cc3C2Cc2ccc(OC)c(OC)c2)cc1OC (stereo unspecified),> 20 µM (inactive)
9,CC1CN(c2ccc(/C=C(\C#N)c3nc4ccccc4[nH]3)o2)CC(C)O1 (stereo unspecified),> 20 µM (inactive)
10,Nc1ccc2c3c(cccc13)C(=O)N(c1ccccc1)C2=O,0.415 µM
11,CC(C)N1CCc2c(sc(NC(=O)C3CC3)c2-c2nc3ccccc3s2)C1,4.79 µM
12,Nc1ccc(-c2nc3cc(N)cc(Cl)c3o2)cc1,17 µM
13,COC(=O)C(C)Sc1nc2sc3c(c2c(=O)n1C)CCC3 (stereo unspecified),> 20 µM (inactive)
14,CCOCCCN1C(=O)C(=Cc2ccccc2O)NC1=S,0.0898 µM
15,O=C(c1snc2c(=O)n(Cc3ccccc3)c(=O)[nH]c12)N1CCSCC1,> 20 µM (inactive)
16,COc1cc(/C=C2\SC(=S)N(C(CC(=O)O)C(=O)O)C2=O)ccc1O (stereo unspecified),9.71 µM
17,CC(C)C(C(=O)O)N1C(=O)/C(=C/c2ccc(O)cc2)SC1=S (stereo unspecified),8.26 µM
18,CCN1CCN(C2=CC3=CC(=C(C#N)C#N)CCC3CC2)CC1 (stereo unspecified),< 0.039 µM
19,C(/C=C/CC=Nc1ccccc1)=Nc1ccccc1,14.5 µM
20,O=C1NC(=O)C2=Cc3ccc(O)cc3OC2(O)N1 (stereo unspecified),0.247 µM
21,COc1ccc2c(C)nc(N=C(N)N)nc2c1,> 20 µM (inactive)
22,O=C(COc1ccccc1)N1CCCC(CNS(=O)(=O)c2cccs2)C1 (stereo unspecified),> 20 µM (inactive)
23,Cc1ccccc1CNc1ncnc2c1ncn2C1OC(CO)C(O)C1O (stereo unspecified),6.77 µM
24,CC1CCCCC1OCCNC(=O)C1(c2ccc(F)cc2)CCC1 (stereo unspecified),> 20 µM (inactive)
25,CN1CCc2c(sc(NC(=O)Cc3ccccc3)c2-c2nc3ccccc3s2)C1,> 20 µM (inactive)
